Laboratory results from ChEMBL document CHEMBL1143666 (J Med Chem, 2007).

Key:
[1] = target: T1, Heat shock protein HSP90 (Homo sapiens, UniProt P07900+P08238); conditions: mcf7
Description: Inhibition of human recombinant HSP90 in MCF7 cells assessed as Her2 degradation

[2] = Aqueous solubility of the compound; assay type: physicochemical; conditions: aqueous medium
[3] = system: BT-474; assay: Antiproliferative activity against human BT474 cells by MTS assay; assay type: functional, cell-based
[4] = system: MCF7; assay: Antiproliferative activity against human MCF7 cells by MTS assay; assay type: functional, cell-based
[5] = system: HT-29; assay: Antiproliferative activity against human HT29 cells; assay type: functional, cell-based
[6] = system: NCI-N87; assay: Antitumor activity in human N87 cells xenografted mouse assessed as tumor growth inhibition at 90 mg/kg, ip administered weekly 5-day-on and 2-day-off schedule for 5 weeks; assay type: functional; conditions: route intraperitoneal, read-out: TGI
[7] = system: RPTEC; assay: Antiproliferative activity against human RPTEC; assay type: cell-based
[8] = target: T1, Heat shock protein HSP90; conditions: ndf
Description: Binding affinity to HSP90 in human NDF cell lysates assessed as inhibition of biotinylated-geldanamycin binding

[9] = target: T1, Heat shock protein HSP90; conditions: mcf7; remark: listed apart in the source
Description: Binding affinity to human recombinant HSP90 in MCF7 cell lysates assessed as inhibition of biotinylated-geldanamycin binding

[10] = target: T1, Heat shock protein HSP90; conditions: mcf7; remark: listed apart in the source
Description: Selectivity for HSP90 in MCF7 cells over HSP90 in NDF cells

[11] = system: RPTEC; assay: Selectivity index, ratio of IC50 for human RPTEC cells to IC50 for MCF7 cells; assay type: functional, cell-based
[12] = system: RPTEC; assay: Selectivity index, ratio of IC50 for human RPTEC cells to IC50 for HT29 cells; assay type: functional, cell-based
[13] = target: T1, Heat shock protein HSP90
Description: Binding affinity to human recombinant HSP90 assessed as inhibition of biotinylated-geldanamycin binding

[14] = Half life in BALB/c mouse at 100 mg/kg, po; assay type: ADME, organism-based; design: dose 100 mg/kg, route oral; conditions: in vivo
[15] = AUC in BALB/c mouse at 100 mg/kg, po; assay type: ADME, organism-based; design: dose 100 mg/kg, route oral; conditions: plasma
[16] = Solubility in mouse serum at pH 7.4; assay type: ADME, cell-free
[17] = system: NCI-N87; assay: Antitumor activity in human N87 cells xenografted mouse assessed as tumor growth inhibition at 60 mg/kg, po administered weekly 5-day-on and 2-day-off schedule for 5 weeks; assay type: functional; conditions: read-out: TGI
[18] = Solubility in simulated gastric fluid at pH 2.0; assay type: physicochemical
[19] = Tmax in BALB/c mouse at 100 mg/kg, po; assay type: ADME, organism-based; design: dose 100 mg/kg, route oral; conditions: in vivo
[20] = Cmax in BALB/c mouse at 100 mg/kg, po; assay type: ADME, organism-based; design: dose 100 mg/kg, route oral; conditions: in vivo
[21] = Solubility in simulated intestinal fluid at pH 6.5; assay type: physicochemical
[22] = system: Liver microsomes; assay: Metabolic stability in human liver microsomes; assay type: ADME, Microsome
[23] = system: NCI-N87; assay: Antitumor activity in human N87 cells xenografted mouse assessed as tumor growth inhibition at 125 mg/kg, po administered weekly 5-day-on and 2-day-off schedule for 5 weeks; assay type: functional; conditions: read-out: TGI

## Cc1cnc(Cn2cnc3c(Cl)nc(N)nc32)c(C)c1O
[1]
  IC50: 100 µM

## COc1cc(Cn2cnc3c(Cl)nc(N)nc32)c(Cl)c(OC)c1OC
[2]
  solubility: < 1 µg/mL
[1]
  IC50: 0.05 µM

## C=CCNC1=C2C[C@@H](C)C[C@H](OC)[C@H](O)[C@@H](C)/C=C(\C)[C@H](OC(N)=O)[C@@H](OC)/C=C\C=C(/C)C(=O)NC(=CC1=O)C2=O [TANESPIMYCIN]
[3]
  IC50: 10 nM
[4]
  IC50: 10 nM
[5]
  IC50: 2 nM
[6]
  inhibition in vivo at 90 mg/kg: 70%
[7]
  IC50: 100 nM

## COc1cc(Cn2cnc3c(O)nc(N)nc32)c(Cl)c(OC)c1OC
[1]
  IC50: 0.7 µM

## Cc1cnc(Cn2cnc3c(Cl)nc(N)nc32)c(C)c1I
[3]
  IC50: 30 nM
[8]
  IC50: 1 µM
[9]
  IC50: 0.003 µM
[10]
  IC50: 333 µM
[4]
  IC50: 30 nM
[11]
  selectivity index: 5
[1]
  IC50: 0.009 µM
[5]
  IC50: 23 nM
[12]
  selectivity index: 7
[7]
  IC50: 150 nM

## COc1cc(Cn2cnc3c(C)nc(N)nc32)c(Cl)c(OC)c1OC
[1]
  IC50: 1.8 µM

## COc1c(C)c[n+]([O-])c(Cn2cnc3c(Cl)nc(N)nc32)c1C
[3]
  IC50: 150 nM
[9]
  IC50: 0.03 µM
[4]
  IC50: 100 nM
[13]
  IC50: 0.8 µM
[1]
  IC50: 0.08 µM

## Cc1cnc(Cn2cnc3c(Cl)nc(N)nc32)c(C)c1OC(C)C
[1]
  IC50: 1.5 µM

## Cc1cnc(Cn2cnc3c(Cl)nc(N)nc32)c(C)c1[S+](C)[O-] (stereo unspecified)
[9]
  IC50: 10 µM
[1]
  IC50: > 10 µM

## COc1cc(Cn2cnc3c(Cl)nc(N)nc32)c(Br)c(OC)c1OC
[1]
  IC50: 0.07 µM

## COc1c(C)c(Cl)nc(Cn2cnc3c(Cl)nc(N)nc32)c1C
[3]
  IC50: 500 nM
[9]
  IC50: 0.025 µM
[4]
  IC50: 500 nM
[1]
  IC50: 0.09 µM

## COc1c(C)ncc(Cn2cnc3c(Cl)nc(N)nc32)c1C.Cl
[14]
  half-life: 54 min
[3]
  IC50: 50 nM
[9]
  IC50: 0.018 µM
[4]
  IC50: 150 nM
[13]
  IC50: 0.9 µM
[15]
  AUC: 9000 ng·h/mL
[16]
  solubility: 186 µg/mL
[1]
  IC50: 0.02 µM
[17]
  inhibition in vivo at 60 mg/kg: 83%
[18]
  solubility: 451 µg/mL
[19]
  Tmax: 6 min
[20]
  Cmax: 28200 ng/mL
[21]
  solubility: 234 µg/mL
[22]
  Stability: 83%

## COc1cc(Cn2cnc3c(OC)nc(N)nc32)c(Br)c(OC)c1OC
[1]
  IC50: 45 µM

## CSc1c(C)cnc(Cn2cnc3c(Cl)nc(N)nc32)c1C
[3]
  IC50: 90 nM
[9]
  IC50: 0.04 µM
[4]
  IC50: 500 nM
[11]
  selectivity index: 5
[1]
  IC50: 0.027 µM
[5]
  IC50: 200 nM
[12]
  selectivity index: 12
[7]
  IC50: 2300 nM

## COc1c(C)cnc(Cn2cnc3c(Cl)nc(N)nc32)c1C.Cl
[14]
  half-life: 48 min
[3]
  IC50: 100 nM
[4]
  IC50: 100 nM
[15]
  AUC: 4800 ng·h/mL
[16]
  solubility: 176 µg/mL
[11]
  selectivity index: 6
[5]
  IC50: 130 nM
[18]
  solubility: 240 µg/mL
[19]
  Tmax: 6 min
[23]
  inhibition in vivo at 125 mg/kg: 87%
[20]
  Cmax: 10000 ng/mL
[12]
  selectivity index: 5
[7]
  IC50: 600 nM
[21]
  solubility: 87 µg/mL
[22]
  Stability: 86%

## COc1ccc(OC)c(Cn2cnc3c(Cl)nc(N)nc32)c1
[1]
  IC50: 3 µM

## Cc1cnc(Cn2cnc3c(Cl)nc(N)nc32)c(C)c1[N+](=O)[O-]
[1]
  IC50: 1 µM

## COc1cc(Cn2cnc3c(Cl)nc(N)nc32)cc(OC)c1OC
[1]
  IC50: 2 µM

## Cc1cnc(Cn2cnc3c(Cl)nc(N)nc32)c(C)c1Cl
[3]
  IC50: 300 nM
[9]
  IC50: 0.01 µM
[4]
  IC50: 100 nM
[11]
  selectivity index: 50
[1]
  IC50: 0.035 µM
[5]
  IC50: 500 nM
[12]
  selectivity index: 10
[7]
  IC50: 5000 nM

## COc1cc(Cn2cnc3c(Cl)nc(N)nc32)c(I)c(OC)c1OC
[1]
  IC50: 0.34 µM

## C#CCCCn1c(Cc2cc(OC)c(OC)c(OC)c2Cl)nc2c(N)nc(F)nc21
[4]
  IC50: 1200 nM

## Cc1cnc(Cn2cnc3c(Cl)nc(N)nc32)c(C)c1Br
[3]
  IC50: 50 nM
[8]
  IC50: 0.8 µM
[9]
  IC50: 0.002 µM
[10]
  IC50: 400 µM
[4]
  IC50: 30 nM
[11]
  selectivity index: 43
[1]
  IC50: 0.015 µM
[5]
  IC50: 130 nM
[12]
  selectivity index: 10
[7]
  IC50: 1300 nM

## COc1cc(Cn2cnc3c(N)nc(N)nc32)c(Br)c(OC)c1OC
[1]
  IC50: 17 µM

## COc1cc(Cn2cnc3cnc(N)nc32)c(Br)c(OC)c1OC
[1]
  IC50: 50 µM

## Cc1cnc(Cn2cnc3c(Cl)nc(N)nc32)c(C)c1N
[1]
  IC50: 5.8 µM

## CCOc1c(C)cnc(Cn2cnc3c(Cl)nc(N)nc32)c1C
[1]
  IC50: 1.5 µM

## Cc1cnc(Cn2cnc3c(Cl)nc(N)nc32)c(C)c1
[9]
  IC50: 4 µM
[1]
  IC50: 7.5 µM

## Cc1cnc(Cn2cnc3c(Cl)nc(N)nc32)c(C)c1C
[3]
  IC50: 80 nM
[9]
  IC50: 0.035 µM
[4]
  IC50: 300 nM
[1]
  IC50: 0.042 µM

## COc1cc(Cn2cnc3c(S)nc(N)nc32)c(Br)c(OC)c1OC
[1]
  IC50: 100 µM

## COc1cc(Cn2cnc3c(Br)nc(N)nc32)c(Br)c(OC)c1OC
[1]
  IC50: 0.055 µM
